The results in this text go back to patent publication US20060115538A1, “Calcium lactate and whey permeate for lowering the triglyceride level” (priority 2002, published 2006).

Common to all, as to type: in vivo
Experiment [1] relates to WOK.W rat. In words: Feeding trial in male WOK.W rats: serum triglycerides. The note with it: 16 weeks old, after 12 weeks supplementation via drinking water, mean ± SEM, pathological threshold >2.3 mmol/l, a: P < 0.01. From the text: (§1) Both pharmacological and nutrition-induced intervention trials on patients with an increased triglyceride level are above all time consuming, in order to detect changes of the metabolism, and require a high degree of discipline and motivation of the test persons or patients taking part in the studies. In part, these disadvantages can be lessened or eliminated by animal experiments, under the precondition that equivalent animal models are available. […] The specific properties of WOK.W rats are described, e.g., in: • P. Kovacs et al., Ann. N.Y. Acad. Sci., 1997, 827, 94-99; • P. Kovacs et al., Biochem. Biophsy. Res. Commun., 2000, 660-665; • J. van den Brandt et al., Int. J. Obesity, 2000, 24, 1618-1622; • J. van den Brandt et al., Metabolism 49, 2000, 1140-1144. […]
(§2) Body weight, body length (for the calculation of the mody mass index, BMI), plasma glucose, and serum triglycerides were recorded every 2 weeks. […]
(§3) Plasma glucose was measured enzymatically using a glucose analyzer. Lipid metabolism parameters were determined enzymatically with an automated analyzer for clinical chemistry, with kits (Boehringer Mannheim: triglycerides with TG GPO-PAP), according to the supplied instruction manuals. […]
(§4) The results are represented as mean values ±SEM and the statistical significance was calculated using Student's t-test.

Experiment [2] concerns WOK.W rat. As to the kind of experiment: Feeding trial in male WOK.W rats: body mass, BMI, pararenal adipose tissue. The note with it: 16 weeks old, after 12 weeks supplementation via drinking water, mean ± SEM.
Text: Both pharmacological and nutrition-induced intervention trials on patients with an increased triglyceride level are above all time consuming, in order to detect changes of the metabolism, and require a high degree of discipline and motivation of the test persons or patients taking part in the studies. In part, these disadvantages can be lessened or eliminated by animal experiments, under the precondition that equivalent animal models are available. […] The specific properties of WOK.W rats are described, e.g., in: • P. Kovacs et al., Ann. N.Y. Acad. Sci., 1997, 827, 94-99; • P. Kovacs et al., Biochem. Biophsy. Res. Commun., 2000, 660-665; • J. van den Brandt et al., Int. J. Obesity, 2000, 24, 1618-1622; • J. van den Brandt et al., Metabolism 49, 2000, 1140-1144.
31 male WOK.W rats (from 8 litters) were divided, at an age of 4 weeks, into 4 groups, such that one sibling was represented in each group. Group 1 (n=8 animals) was fed and watered ad libitum and served as an untreated control group. Group 2 (n=7 animals) received drinking water to which had been added whey permeate (25 g sweet whey permeate/1000 ml drinking water), a daily water requirement of 20 ml on average being assumed as the basis of the calculation. Group 3 (n=8 animals) received drinking water to which had been added calcium L-lactate (5,6 g calcium L-lactate/1000 ml drinking water), and group 4 (n=8 animals) received whey permeate and calcium L-lactate in identical concentrations. The treatment trial began at an age of 4 weeks, i.e. before the development of the most important symptoms of the metabolic syndrome, and continued for 12 weeks, until an age of 16 weeks.
as §2, §4

For experiment [3], the system named is WOK.W rat. As to the kind of experiment: Feeding trial in male WOK.W rats: plasma glucose. The note with it: 16 weeks old, after 12 weeks supplementation via drinking water, mean ± SEM, pathological threshold >8.4 mmol/l.
Text: as §1, §2, §3, §4

On to `C[C@H](O)C(=O)[O-].C[C@H](O)C(=O)[O-].[Ca+2]` [Calcium lactate, calcium L-lactate], for which the Triglyceride with WOK.W rat [1] was 3.88 ± 0.22 mmol/L. In the experiment with WOK.W rat [2], this compound came in with a BMI of 0.77 ± 0.01 g/cm^2 and a Body mass of 394.3 ± 10.6 G. The compound also returned an Adipose tissue with WOK.W rat [2] (pararenal adipose tissue) of 10.01 ± 0.71 G. The compound also showed a Blood sugar with WOK.W rat [3] of 6.10 ± 0.21 mmol/L.
